Source: patent publication US20240269095A1, “Rapid Onset Therapeutic Ketosis Enabled by D-BetaHydroxyButyric Acid Systems, Compounds and Methods for Stroke medication co-administration” (American Ketone Therapeutics LLC, priority 2022, published 2024)

Experiments:
[1] = compared with ketone salts, literature table; cited from earlier work
[2] = Stated properties of free D-BHB (Table 1); parameters: species or system human
[3] = Continuous Ketone Meter (CKM) monitoring of body ketone levels and deep sleep; type: in vivo, human; conditions: 5 grams consumed 45 minutes prior to bedtime
Source text: FIG. 12 is a graphical illustration of continuous monitoring of body ketone levels resulting in improved deep sleep time due to enhanced D-BHB levels according to the claimed invention. It is noteworthy that consumption of even small amounts of free D-BetaHydroxy Butyric Acid can give rise to therapeutic ketosis levels as measured by Continuous Ketone Meter (CKM). […] While free D-BetaHydroxyButyric Acid is not a sedative, even small amounts can greatly improve deep sleep quantity and quality. It is an intended and foreseeable embodiment application to increase deep sleep with free D-BetaHydroxyButyric Acid with the aim of improving stroke recovery and enhanced brain resiliency.

[4] = Continuous glucose monitoring (Abbot Libre CGM) with carbohydrate challenge; type: in vivo, human; conditions: 10 g given 45 minutes before 50 g carbohydrate ingestion; compared with unsupplemented ingestion
Source text: FIG. 11 is a graphical illustration of continuous monitoring of body glucose levels. FIG. 11 depicts continuous glucose monitoring levels with carbohydrate challenge documented by Abbot Libre Continuous Glucose Monitoring (CGM) device. In this illustrative embodiment, glucose levels from a 50 g carbohydrate ingestion are depicted unaided by free D-BetaHydroxyButyric Acid on the left and repeated the following day with two 50 g carbohydrate ingestions accompanied by 10 g free D-BetaHydroxyButyric Acid administered 45 minutes before the carbohydrate insult. […] As free D-BetaHydroxyButyric Acid can lower glucose while rapidly increasing ketone levels, it is believed that obtaining high ketones while lowering glucose will yield additional stroke recovery benefits for high glucose sensitive individuals suffering from stroke.

[5] = Blood ketone level by Abbott blood ketone meter / test strip after oral free D-BHB; type: in vivo, human
Source text: FIG. 9 is a graphical illustration of D-BHB exogenous ketone blood levels. The above Abbot blood ketone meter evidenced by Abbott blood test strip depicts the rapid rise in blood ketone levels from 0.1 mmol/L (absence of ketosis) to 2.7 mmol/L (ketosis) after oral bolus administration of 15 grams of bioidentical free D-BetaHydroxyButyric Acid. The ketone levels depicted are attained in the absence of a salt as well as without ester bonds. It is the free acid D-BHB exogenously administered which is bio-identical to the endogenous D-BHB free acid generated by the human body. The bioidentical ketone body D-BHB is first and foremost an energy source, which is directly and preferentially metabolized by the brain. D-BHB is also active as a signaling mechanism and neuro-inflammation reduction agent, resulting in broad and beneficial brain bioenergy related benefits.
FIG. 10 is a graphical illustration of D-BHB exogenous ketone blood levels. FIG. 10 details rapid ketosis within 45 minutes confirmed by Abbott blood test strip after 10 g D-BHB with palatability agent administered by oral drink. Blood ketone levels document rise from 0.2 mmol/L to 1.8 mmol/L and 0.6 mmol/L to 1.9 mmol/L in a variety of test subjects. FIG. 10 reinforces the fact that supplementation by utilizing free D only BetaHydroxyButyric Acid without ketone salt or ketone ester is a reliable, reproducible method and system for rapid ketone level increase for stroke recovery and maintenance. While amounts of free D only BetaHydroxyButyric Acid taken for stroke effects may vary, it is an anticipated preferred embodiment that levels between 5 and 30 grams of D only BetaHydroxyButyric Acid are taken as needed for optimum recovery. Alternate embodiments may include lower or higher amounts, however, experimental evidence has confirmed optimal administration in this range for a wide variety of other applications.

| Induces Ketoacidosis [2] | Metabolism [2] | increase in ketone level (CKM) [3] | time to ketosis ([5]; 10 g D-BHB with palatability agent by oral drink) | blood ketone level after administration ([5]; 10 g with palatability agent by oral drink, test subject rising from 0.2 mmol/L) | blood ketone level after administration ([5]; 10 g with palatability agent by oral drink, test subject rising from 0.6 mmol/L) | blood ketone level after administration ([5]; oral bolus of 15 grams, rise from 0.1 mmol/L (absence of ketosis)) | SMILES | ketone level response [1] | deep sleep quantity [3] | glucose spike after carbohydrate ingestion [4] |
| --- | --- | --- | --- | --- | --- | --- | --- | --- | --- | --- |
|  |  |  |  |  |  |  | C[C@@H](O)CCOC(=O)C[C@@H](C)O [ketone ester, (R)-3-hydroxybutyl (R)-3-hydroxybutyrate] | higher ketone level response |  |  |
| Induces Ketoacidosis: No | Metabolism: Rapid, minutes | 1.5 mmol/L | ≤ 45 min | 1.8 mmol/L | 1.9 mmol/L | 2.7 mmol/L | C[C@@H](O)CC(=O)O [free D-BetaHydroxyButyric Acid, D-β-HydroxyButyric Acid] |  | enhance the quantity of deep sleep obtained | rapid glucose spike depicted in the unsupplemented ingestion is not found |
